In US20240190903A1, “COMPOUNDS FOR PROGRAMMABLE PROTEIN DEGRADATION AND METHODS OF USE FOR THE TREATMENT OF DISEASE” (Mayo Foundation for Medical Education and Research, priority 2021, published 2024):

Key:
VCaP xenografts = VCaP xenografts in SCID mice; type: in vivo; settings: 25 mg/kg, 23 days
Experimental: For IHC, tissues were rehydrated, endogenous peroxidase activity was destroyed, and antigens were retrieval. Antibodies for IHC as following: anti-AR (ab108341, Abcam), anti-ERG (ab92513, Abcam), anti-Ki67 (ab15580), anti-UMPS (NOVUS, #85896), anti-RRM1 (Cell signaling technology, #8637), anti-CBP (Santa Cruz Biotechnology, sc-583), anti-LEF1 (Cell signaling technology, #2230S). For quantification, the staining score was determined by multiplying the percentage of positive cells and the intensity ranged from 1 (weak staining), 2 (median staining), and 3 (strong staining). For Ki67 quantification, cells with positive staining in the nucleus were included to calculate the percentage of Ki67 positive-staining cells.
Six-week SCID male mice were used in the study. Mice were subcutaneously injected with VCaP cells (5×10^6) mixed with Matrigel mixture (1×PBS: Matrigel (BD Biosciences)=1:1). After the xenografts reached a size of approximately 100 mm^3, mice were treated intraperitoneally with vehicle (90% corn oil (Sigma-Aldrich)+10% DMSO), ICG-001 or CBP PROTAC CP2 at 25 mg/kg for 5 days per week. For LEF1/TCF O′PROTAC administration, mice were transplanted with LuCaP23.1 PDX tumors in the approximately same volume. […] Tumor length (L) and width (W) were measured every 3 days, and tumor volumes were calculated by the formula: (L×W^2)/2. […]

[1] = test system: PSGs and canonical β-Catenin target genes CCND1 and c-MYC; experiment: RT-qPCR and western blot of PSGs, CCND1 and c-MYC in VCaP cells; type: cell-based, human
Experimental: PRI-724 is a pro-drug of C-82, a second-generation specific β—Catenin/CBP antagonist.
The total RNA was extracted from cultured cells or organoids using Trizol reagent (Thermo Fisher Scientific) according to the manufacturer's instructions. Complementary DNA was synthesized using reverse transcriptase (Promega). mRNA expression level was determined by real-time quantitative PCR (qPCR) using SYBR Green Mix (Thermo Fisher Scientific) with the realtime PCR system (Bio-Rad). Relative gene expression was normalized to the expression of house-keeping gene Actin Beta (ACTB).

VCaP cells = experiment: MTS cell growth assay in VCaP cells; type: cell-based, human; settings: compound added to cells, different doses
Experimental: VCaP cells were seeded at the density of 5,000 cells per well in 96-well plate overnight. At the indicated time points, optical density (OD) of cells was measured by microtiter reader (Biotek) at 490 nanometer after incubation with MTS (Promega) for 2 hours at 37° C. in a cell incubator. For the treatment with CP-2, ICG-001 or PRI-724, cells were seeded in 96-well plate overnight followed by adding indicated compounds. OD values were measured at the indicated time points.

[2] = physiological pH 7.4; hydrolysis of phthalimide and glutarimide moiety; cited from earlier work
293T and VCaP cell lines = experiment: Fluorescent microscopy of FITC-labelled ERG O′PROTAC transfection/uptake; type: cell-based, human; settings: 293T cells
Experimental: FIGS. 2A-2C. ERG O′PROTACs degrade ERG protein in cultured cells. (FIG. 2A) 293T cells were transfected with FITC-labelled ERG O′PROTAC-13 (100 nM and 1,000 nM), and the transfection efficiency was monitored 48 hours post-transfection using a fluorescent microscope. Scale bar: 50 μm. (FIG. 2B) 293T cells were transfected with HA-ERG plasmid and a control or six indicated ERG O′PROTACs (100 nM) and harvested for western blot analysis 48 hours post-transfection. ERK2 was used as a loading control. (FIG. 2C) VCaP cells were transfected with a control or six indicated ERG O′PROTACs (100 nM), and cells were harvested for western blot analysis 48 hours post-transfection. Both endogenous full-length (FL) wild-type and TMPRSS2-ERG (T2-ERG) truncated ERG were detected.
FIGS. 12A-12H. Phthalic acid-based ERG O′PROTAC degrades ERG oncoprotein. […] The P values were determined using the unpaired two-tailed Student's t-test. n.s. represents not significant by comparing the values in ERG O′PROTAC-treated groups to the control OP-treated group. […] The remaining ERG protein (%) was calculated by normalizing the value of each group to that of the group without ERG OP-C-P1 treatment. (FIG. 12H) The concentration of ERG OP-C-P1 degrading 50% of ERG protein (DC50) was calculated with Prism software. […]

Compound	expression of PSGs, CCND1 and c-MYC at mRNA and protein levels [1]	VCaP cell growth (MTS) (VCaP cells)	also measured
O=C1[C@H](Cc2ccc(O)cc2)N2C(=O)CCN(C(=O)NCc3ccccc3)[C@H]2CN1Cc1cccc2ccccc12 [ICG-001]	decreased expression	inhibited cell growth	mouse body weight (VCaP xenografts): did not result in obvious deleterious effect
C[C@H]1[C@H]2N(C(=O)CN(C)N2C(=O)NCc2ccccc2)[C@@H](Cc2ccc(OP(=O)(O)O)cc2)C(=O)N1Cc1cccc2cccnc12 [PRI-724]	inhibition	inhibition	–
O=C1CCC(N2C(=O)c3ccccc3C2=O)C(=O)N1 (centres unmarked) [thalidomide]	–	–	stability [2]: poor stability
FITC-ERG OP-C1: Forward 5′-FITC-ACGGACCGGAAATCCGGTT-3′; reverse 5′-P1-AACCGGATTTCCGGTCCGT-3′	–	–	uptake efficacy at 100 nM versus 1,000 nM (293T and VCaP cell lines): no difference in uptake efficacy; cellular uptake with lipofectamine 2000 versus mock transfection (293T and VCaP cell lines; 100 or 1,000 nM): greatly enhanced the cellular uptake
